According to ChEMBL document CHEMBL2346646, “Improving the inhibitory activity of arylidenaminoguanidine compounds at the N-methyl-D-aspartate receptor complex from a recursive computational-experimental structure-activity relationship study” (Bioorg Med Chem, 2013):

Target: Glutamate [NMDA] receptor
Set-up: species or system Homo sapiens

| Structure (SMILES) | pIC50 |
| --- | --- |
| Cl.N=C(N)N/N=C/c1ccc([N+](=O)[O-])cc1 | 4.11 |
| COc1ccccc1/C=N/NC(=N)N.Cl | 4.77 |
| CN(C)c1ccc(/C=N/NC(=N)N)cc1.Cl | 5.1 |
| COc1ccc(/C=N/NC(=N)N)c(OC)c1.Cl | 4.54 |
| Cl.N=C(N)N/N=C/c1cccc([N+](=O)[O-])c1 | 3.81 |
| Cl.N=C(N)N/N=C/C=C/c1ccccc1 | 4.23 |
| Cl.N=C(N)N/N=C/c1ccsc1 | 3.74 |
| Cc1ccc2cc(/C=N/NC(=N)N)[nH]c2c1.Cl | 4.48 |
| Cl.Cn1c(/C=N/NC(=N)N)cc2ccccc21 | 4.31 |
| Cl.N=C(N)N/N=C/c1ccc2[nH]ccc2c1 | 4.3 |
| Cl.N=C(N)N/N=C/c1cc2ccccc2[nH]1 | 4.24 |
| Cl.N=C(N)N/N=C/c1ccncc1 | 3.27 |
| Cl.N=C(N)N/N=C/c1cccnc1 | 3.17 |
| Cl.N=C(N)N/N=C/c1ccc[nH]1 | 4.02 |
| Cl.N=C(N)N/N=C/c1ccc(-c2ccc([N+](=O)[O-])cc2)o1 | 3.96 |
| Cc1ccc(/C=N/NC(=N)N)c2ccccc12.Cl | 4.94 |
| Cc1ccc2ccccc2c1/C=N/NC(=N)N.Cl | 4.58 |
| Cl.N=C(N)N/N=C/c1ccc2ccccc2c1 | 5.06 |
| Cl.N=C(N)N/N=C/c1cccc2ccccc12 | 4.57 |
| Cl.N=C(N)N/N=C/c1ccccc1-c1ccccc1 | 5.07 |
| Cl.N=C(N)N/N=C/c1ccc(F)cc1F | 4.26 |
| Cl.N=C(N)N/N=C/c1ccc(F)cc1 | 4.04 |
| Cl.N=C(N)N/N=C/c1ccccc1F | 4.13 |

| Structure (SMILES) | pIC50 |
| --- | --- |
| Cl.N=C(N)N/N=C/c1ccc(Cl)cc1Cl | 4.99 |
| Cl.N=C(N)N/N=C/c1cccc(Cl)c1 | 4.74 |
| Cl.N=C(N)N/N=C/c1ccccc1Cl | 5.15 |
| COc1ccc(/C=N/NC(=N)N)cc1[N+](=O)[O-].Cl | 5.11 |
| COc1ccc(/C=N/NC(=N)N)cc1O.Cl | 4.2 |
| Cl.N=C(N)N/N=C/c1ccc(N)cc1 | 3.96 |
| Cl.N=C(N)N/N=C/c1cccc(N)c1 | 3.65 |
| COc1ccc(/C=N/NC(=N)N)cc1.Cl | 4.42 |
| Cl.N=C(N)N/N=C/c1ccc(O)cc1O | 3.67 |
| Cl.N=C(N)N/N=C/c1ccccc1C(F)(F)F | 4.6 |
| CC(C)c1ccc(/C=N/NC(=N)N)cc1.Cl | 5.22 |
| CCCCc1ccc(/C=N/NC(=N)N)cc1.Cl | 4.37 |
| CC(C)(C)c1ccc(/C=N/NC(=N)N)cc1.Cl | 4.64 |
| Cl.N#Cc1cccc(/C=N/NC(=N)N)c1 | 4.36 |
| Cl.N#Cc1ccc(/C=N/NC(=N)N)cc1 | 3.64 |
| COC(=O)c1cccc(/C=N/NC(=N)N)c1.Cl | 4.14 |
| COC(=O)c1ccc(/C=N/NC(=N)N)cc1.Cl | 4.15 |
| Cl.N=C(N)N/N=C/c1ccccc1 | 4.14 |
| Cc1ccc(/C=N/NC(=N)N)cc1.Cl | 4.09 |
| Cl.N=C(N)N/N=C/c1ccc2c(c1)OCO2 | 4.41 |
| Cl.Cl.N=C(N)N/N=C/c1ccc(/C=N/NC(=N)N)cc1 | 4.49 |
| Cl.N=C(N)N/N=C/c1ccc(Cl)cc1 | 5.44 |
